The target in one assay is T1, human DNA polymerase γ (Homo sapiens, UniProt P54098).
T1 construct: purchased Gentaur
T1 sequence (P54098 1-1239): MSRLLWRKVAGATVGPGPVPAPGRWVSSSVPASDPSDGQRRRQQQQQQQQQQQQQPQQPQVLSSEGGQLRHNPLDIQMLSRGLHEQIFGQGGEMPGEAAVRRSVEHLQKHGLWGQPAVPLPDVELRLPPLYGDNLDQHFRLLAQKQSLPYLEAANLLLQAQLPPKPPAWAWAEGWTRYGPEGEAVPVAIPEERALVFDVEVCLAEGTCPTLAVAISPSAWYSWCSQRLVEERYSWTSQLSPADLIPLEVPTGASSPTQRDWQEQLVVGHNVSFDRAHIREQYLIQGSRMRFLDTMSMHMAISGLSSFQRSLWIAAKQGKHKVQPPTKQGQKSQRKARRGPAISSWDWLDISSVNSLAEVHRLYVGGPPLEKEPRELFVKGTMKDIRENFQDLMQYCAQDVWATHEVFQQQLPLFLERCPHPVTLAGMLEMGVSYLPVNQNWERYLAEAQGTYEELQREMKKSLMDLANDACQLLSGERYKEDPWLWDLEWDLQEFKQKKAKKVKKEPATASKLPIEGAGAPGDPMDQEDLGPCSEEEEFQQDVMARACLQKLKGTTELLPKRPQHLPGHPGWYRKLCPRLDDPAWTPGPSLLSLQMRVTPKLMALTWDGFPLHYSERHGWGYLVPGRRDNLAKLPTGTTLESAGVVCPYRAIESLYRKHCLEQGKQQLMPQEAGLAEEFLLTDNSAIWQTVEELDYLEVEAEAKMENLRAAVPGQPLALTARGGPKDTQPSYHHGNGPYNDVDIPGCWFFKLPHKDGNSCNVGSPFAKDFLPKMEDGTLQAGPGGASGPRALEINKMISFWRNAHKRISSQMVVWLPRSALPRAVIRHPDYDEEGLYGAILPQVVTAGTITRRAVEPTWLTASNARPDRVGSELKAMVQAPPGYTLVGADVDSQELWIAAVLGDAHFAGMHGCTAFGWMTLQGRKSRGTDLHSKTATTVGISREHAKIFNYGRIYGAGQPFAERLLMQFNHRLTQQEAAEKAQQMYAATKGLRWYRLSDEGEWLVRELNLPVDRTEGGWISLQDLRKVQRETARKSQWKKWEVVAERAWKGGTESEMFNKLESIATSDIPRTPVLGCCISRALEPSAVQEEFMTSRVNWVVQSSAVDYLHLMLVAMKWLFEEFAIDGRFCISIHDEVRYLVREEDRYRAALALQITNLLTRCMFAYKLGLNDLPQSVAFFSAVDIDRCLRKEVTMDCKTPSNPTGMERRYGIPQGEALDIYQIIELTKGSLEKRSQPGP
Nature of the assay: Homogeneous time-resolved fluorescence human DNA polymerase γ assay. The assay is classed as biochemical. To be noted: triphosphates, room temperature 30 minutes. The method, then: Exemplary compounds were tested for ability to inhibit human DNA polymerase γ using a homogeneous time-resolved fluorescence (HTRF) assay. Off-target inhibition of DNA polymerase γ by NRTIs can result in undesired mitochondrial toxicity. Assay procedures and results are described below.
The human DNA polymerase γ homogeneous time-resolved fluorescence (HTRF) assay was performed with recombinant human DNA polymerase γ protein (Gentaur) in a 384-well format. Test compound was serially diluted in water and further diluted in the assay buffer (28 mM Tris-HCl, 14 mM NaCl, 0.56 mM MgCl2, 0.011% Triton X-100, 0.11 mg/ml BSA, 1.1 mM DTT, pH 8.1). The serially diluted compound was mixed with polymerase γ, 10 nM of pre-annealed template/biotin-primer pair (synthesized at Geneway Biotechnology), 100 nM of Fluorescein-12-dCTP fluorescent probe (PerkinElmer), and 10 μM dGTP/dATP/dTTP (ThermoFisher Scientific) in the assay buffer. The template/biotin-primer sequences were as follows:
After incubating at room temperature for 30 minutes, the detection reagent (5 mM EDTA with streptavidin-terbium cryptate, Cisbio Bioassay) in the PPI buffer (Cisbio Bioassay) was added, and the mixture was incubated at room temperature for 60 minutes. At the end of the incubation, fluorescence was read at ex/em=337/485 nm and ex/em=337/520 nm on an Envision 2104 plate reader (PerkinElmer). The fluorescence ratio at 520/485 nm was used for the calculation. […] The IC50 was calculated by fitting the compound dose inhibition curve with a 4-parameter non-linear regression equation.

Assay [1] concerns the target T2, HERV-K reverse transcriptase (Homo sapiens, UniProt V9H0F6).
T2 construct: fused on or other part: C-terminal 8xHis tag
Kind of assay: Homogeneous time-resolved fluorescence (HTRF) HERV-K RT assay. The assay is classed as biochemical. To be noted: triphosphate analogs, HERV-K enzyme 16 ng/well, 25° C. 30 minutes. As to the method: Exemplary triphosphate analogs were tested for ability to inhibit HERV-K reverse transcriptase using a homogeneous time-resolved fluorescence (HTRF) assay. Assay procedures and results are described below.
The HERV-K reverse transcriptase homogeneous time-resolved fluorescence (HTRF) assay was performed in a 384-well format with HERV-K reverse transcriptase (2-596)-8His protein. Baculoviruses were created using Bac-to-Bac technology (Invitrogen). pFastflac donor plasmids containing HERV-K reverse transcriptase sequence (NCBI GenBank number AAC63291.1, J. Virology (1999) Vol. 73, No. 3, pp. 2365-2375) were transformed into DH10 Bac cells following the manufacturer's instructions. Recombinant bacmids were then isolated clonally and transfected into SF9 cells with lipofectin. HERV-K reverse transcriptase was expressed in the SF9 insect cells and then purified using immobilized metal affinity chromatography (IMAC) followed by size-exclusion chromatography (SEC).
Test compound was serially diluted in DMSO and further diluted in the assay buffer (50 mM Tris-HCl, 50 mM KCl, 10 mM MgCl2, 10 mM DTT, pH 8.1) to achieve a final DMSO concentration of 1%. The serially diluted compound was mixed with 16 ng/well of HERV-K enzyme, 5 nM of pre-annealed template/biotin-primer pair (synthesized at Geneway Biotechnology), 10 nM of Fluorescein-12-dCTP fluorescent probe (PerkinElmer), and 1 mM dGTP, dATP, and DTTP (ThermoFisher). The template/biotin-primer sequences were:
After incubating at 25° C. for 30 minutes, the detection reagent 20 mM EDTA with streptavidin-terbium cryptate (Cisbio Bioassay) in the PPI buffer (Cisbio Bioassay) was added, and the mixture was incubated at 25° C. for 60 minutes. At the end of the incubation, fluorescence was read at ex/em=337/485 nm and ex/em=337/520 nm on an Envision 2104 plate reader (PerkinElmer). The fluorescence ratio at 520/485 nm was used for the calculation. […] IC50 values were calculated by fitting the compound dose inhibition curve with a 4-parameter non-linear regression equation.
Background: TR-FRET usually uses a lanthanide donor and a delayed reading to cut background.

The record followed here is patent US20230295212A1 (ROME Therapeutics, Inc., priority 2022, published 2023).

Counter-ions that a name gives are not always drawn.

T2 sequence (V9H0F6 entry or part of it): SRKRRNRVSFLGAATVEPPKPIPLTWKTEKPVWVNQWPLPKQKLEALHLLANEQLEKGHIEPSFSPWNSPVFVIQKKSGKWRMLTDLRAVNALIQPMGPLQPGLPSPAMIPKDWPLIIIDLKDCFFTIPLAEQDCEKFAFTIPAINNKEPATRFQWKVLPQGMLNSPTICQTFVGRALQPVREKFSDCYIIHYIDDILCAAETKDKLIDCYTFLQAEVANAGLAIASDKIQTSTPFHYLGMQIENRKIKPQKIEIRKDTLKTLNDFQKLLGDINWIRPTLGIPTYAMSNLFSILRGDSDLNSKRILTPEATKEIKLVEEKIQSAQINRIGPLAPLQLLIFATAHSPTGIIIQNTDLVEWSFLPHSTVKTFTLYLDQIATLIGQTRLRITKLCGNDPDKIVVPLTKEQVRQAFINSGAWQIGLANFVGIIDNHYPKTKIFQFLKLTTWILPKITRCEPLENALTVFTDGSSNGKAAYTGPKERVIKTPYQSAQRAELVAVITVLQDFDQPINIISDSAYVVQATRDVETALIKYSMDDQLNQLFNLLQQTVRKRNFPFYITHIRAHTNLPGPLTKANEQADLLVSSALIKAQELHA

For orientation: IC50 means the concentration that gives 50% inhibition. Consider `Nc1ccn([C@H]2C[C@H](O)[C@@](CCl)(COP(=O)(O)OP(=O)(O)OP(=O)(O)O)O2)c(=O)n1` [Compound 2-TP], for which the IC50 on human DNA polymerase γ is not above 50 µM; in assay [1], 17 µM.
Regarding `Nc1ccn([C@@H]2O[C@](CCl)(COP(=O)(O)OP(=O)(O)OP(=O)(O)O)[C@@H](O)[C@@H]2F)c(=O)n1` [Compound 40-TP], the IC50 is 200 to 300 µM at human DNA polymerase γ and more than 10 µM in assay [1].
On to `Nc1nc(=O)n([C@H]2C[C@H](O)[C@@](CCl)(COP(=O)(O)OP(=O)(O)OP(=O)(O)O)O2)cc1F` [Compound 14-TP, ((2R,3S,5R)-5-(4-amino-5-fluoro-2-oxopyrimidin-1(2H)-yl)-2-(chloromethyl)-3-hydroxytetrahydrofuran-2-yl)methyl tetrahydrogen triphosphate TEA Salt], for which the figures for the IC50 (against human DNA polymerase γ; in assay [1]) were 50 to 100 µM and more than 10 µM, respectively.
The like results for `CC[C@]1(COP(=O)(O)OP(=O)(O)OP(=O)(O)O)O[C@@H](n2ccc(N)nc2=O)C[C@@H]1O` [44-TP] were, in that order, more than 300 µM and more than 10 µM.
The like results for `C#C[C@]1(COP(=O)(O)OP(=O)(O)OP(=O)(O)O)O[C@@H](n2ccc(N)nc2=O)[C@@H](F)[C@@H]1O` [Compound 35-TP] were, in that order, 200 to 300 µM and 0.013 µM.
The like results for `Nc1nc(=O)n([C@@H]2O[C@](CCl)(COP(=O)(O)OP(=O)(O)OP(=O)(O)O)[C@@H](O)[C@@H]2F)cc1F` [Compound 67-TP] were, in that order, 200 to 300 µM and more than 10 µM.
For `C=C[C@]1(COP(=O)(O)OP(=O)(O)OP(=O)(O)O)O[C@@H](n2ccc(N)nc2=O)C[C@@H]1O` [Compound 43-TP], the IC50 against human DNA polymerase γ was 200 to 300 µM; in assay [1], 4.01 µM.
